One assay deals with C. albicans cells. Nature of the assay: Intracellular ATP determination. The assay is classed as cell-based. Conditions: compound at 20 µM, 30 minutes, mean ± SEM n = 5. The source says:
It was subsequently evaluated whether or not the carbazoles were able to prevent extracellular acidification of the surrounding media by blocking the pumping activity of the H^+-ATPase within fungal cells.[15] […] The H^+-ATPase requires ATP to transport protons out of fungal cells. Consequently, a decrease in intracellular ATP (iATP) levels will indirectly affect H^+-ATPase activity. […] In all cases, iATP levels were […] in C. albicans cells exposed to carbazoles compared to the untreated control. […] This implies that the carbazoles need to pass the fungal membrane to inhibit the H^+-ATPase and 7, 18 and 19 may have reduced membrane permeability.
C. albicans cells were transferred to 3 ml of YPD media and grown overnight at 30 °C and 150 rpm. The cells were pelleted at 2000 × g for 2 min. and washed in PBS (Sigma-Aldrich, catalog number 8537) twice before re-suspension to an OD600 of 0.1. Cell suspension (98 µL) and 2 µl compound in DMSO were incubated for 30 minutes at RT. Forty microliters of this suspension was then transferred to a black 96-well plate containing 40 µl BacTiterGlo reagent (Promega, Madison, WI) and the plate was incubated for 15 minutes in the dark at room temperature. Luminescence was read on a SpectraMax X5 (Molecular Devices, Sunnyvale, CA) plate reader with 10 s shake and 0.5 s integration time. A standard curve containing 10, 100 and 1000 nM ATP was prepared for every experiment.

A further assay concerns the target T1, S. cerevisiae H^+-ATPase (Saccharomyces cerevisiae, UniProt P05030).
T1 construct: transformed with the full-length cDNA of the S. cerevisiae plasma membrane H^+-ATPase isoform PMA1; made in house; host or cells: S. cerevisiae RS72
Nature of the assay: NADH-coupled ATPase assay, initial rate of ATP hydrolysis. It counts as biochemical. Conditions: pH 7, n = 3. As for the experimental part: To investigate whether the ATPase inhibition observed was due to compound binding at the ATP binding site, three compounds (5, 7, and 10) were selected for further evaluation in an ATPase activity assay on S. cerevisiae H^+-ATPase-containing membranes in presence of increasing ATP concentrations. The initial rate of ATP turnover was measured spectrophotometrically by an NADH-coupled ATPase activity assay that uses phosphoenolpyruvate to regenerate ATP, as described in Møller et al., 1980.[18]
Fig. 5 Kinetics of H^+-ATPase inhibition by carbazole compounds. The initial rate of ATP hydrolysis catalyzed by S. cerevisiae H^+-ATPase was determined by an NADH-coupled ATPase assay, as described in the Supporting Information. The reaction was initiated by the addition of H^+-ATPase-containing membranes (arrows with “H^+-ATPase”) to a pH 7 buffer containing 5 mM ATP. At the indicated times the respective compounds were added to give the final compound concentrations shown in the figure and a final DMSO concentration of 1.1%.
Fig. 6 Compound dependence of the initial rate of H^+-ATPase activity at 1 mM (triangles) or 10 mM (circles) ATP. The initial rates following compound addition deduced from experiments similar to those shown in Fig. 5 were normalized to the maximal rate obtained at 10 mM ATP in the absence of compound (presence of 1.1% DMSO) and plotted as a function of the compound concentration.
The initial rate of ATP turnover at RT was measured spectrophotometrically at 340 nm by an NADH-coupled ATPase assay that uses phosphoenolpyruvate to regenerate ATP, as described in Møller et al., 1980^4. The reaction buffer contained 17.5 mM MOPS-NaOH pH 7, 44 mM KNO3, 22 mM NaN3, 0.22 mM Na2MoO4, 1 mM phosphoenolpyruvate, 0.27 mM NADH, 83 µg/ml pyruvate kinase, 22 µg/ml L-lactate dehydrogenase, either 1, 5 or 10 mM ATP, and MgSO4 to give a Mg^2+ concentration of 2 mM in excess over the ATP concentration. The ATPase reaction was initiated by the addition of 0.2-0.3 mg/ml of S. cerevisiae Pma1-containing membranes followed by addition of compound (resulting in a final DMSO concentration of 1.1%).

The next assay relates to Pseudomonas aeruginosa. On the set-up: method as in PMID 25453797, PMID 27167126. To be noted: cited from earlier work.
Another assay has as its system C. glabrata (ATCC 90030). Nature of the assay: Time-kill assay. It counts as cell-based. The method, then: (§1) Time-kill studies were carried out to investigate whether the antifungal activity observed for 10 was fungistatic or fungicidal. Given the essential nature of fungal H^+-ATPase, it is anticipated that compounds targeting H^+-ATPase activity will promote fungicidal effects.[21]
(§2) Fig. 7 Time-kill data for C. albicans and C. glabrata cells (1 × 10^5 CFU/ml) incubated with DMSO (final concentration 1%), 1 µM AMB, and 5 or 10 µM of compound 10.
(§3) C. albicans (SC5314) and C. glabrata (ATCC 90030) cells (1 x 10^5 CFU/ml) were incubated in 10 mL RPMI media at 30 °C with gentle agitation (150 rpm) in the presence of amphotericin B (1 µM) or compound 10 at a concentration of 5 or 10 µM. At the indicated time points (0, 1, 3, 5 and 24 h at 30 °C incubation, 150 rpm), 100-μL aliquots were removed, serially diluted (10-fold) in saline (0.9% NaCl), and plated on YPD agar plates. The resulting CFUs were enumerated after incubation at 30 °C for 48 h. Cells treated with DMSO (1%, v/v) served as a control.

The test system of a further assay is C. albicans (SC5314). Nature of the assay: Time-kill assay. It counts as cell-based. As for the experimental part: as §1, §2, §3

Structures are written as SMILES.

T1 sequence (P05030 whole entry, canonical isoform): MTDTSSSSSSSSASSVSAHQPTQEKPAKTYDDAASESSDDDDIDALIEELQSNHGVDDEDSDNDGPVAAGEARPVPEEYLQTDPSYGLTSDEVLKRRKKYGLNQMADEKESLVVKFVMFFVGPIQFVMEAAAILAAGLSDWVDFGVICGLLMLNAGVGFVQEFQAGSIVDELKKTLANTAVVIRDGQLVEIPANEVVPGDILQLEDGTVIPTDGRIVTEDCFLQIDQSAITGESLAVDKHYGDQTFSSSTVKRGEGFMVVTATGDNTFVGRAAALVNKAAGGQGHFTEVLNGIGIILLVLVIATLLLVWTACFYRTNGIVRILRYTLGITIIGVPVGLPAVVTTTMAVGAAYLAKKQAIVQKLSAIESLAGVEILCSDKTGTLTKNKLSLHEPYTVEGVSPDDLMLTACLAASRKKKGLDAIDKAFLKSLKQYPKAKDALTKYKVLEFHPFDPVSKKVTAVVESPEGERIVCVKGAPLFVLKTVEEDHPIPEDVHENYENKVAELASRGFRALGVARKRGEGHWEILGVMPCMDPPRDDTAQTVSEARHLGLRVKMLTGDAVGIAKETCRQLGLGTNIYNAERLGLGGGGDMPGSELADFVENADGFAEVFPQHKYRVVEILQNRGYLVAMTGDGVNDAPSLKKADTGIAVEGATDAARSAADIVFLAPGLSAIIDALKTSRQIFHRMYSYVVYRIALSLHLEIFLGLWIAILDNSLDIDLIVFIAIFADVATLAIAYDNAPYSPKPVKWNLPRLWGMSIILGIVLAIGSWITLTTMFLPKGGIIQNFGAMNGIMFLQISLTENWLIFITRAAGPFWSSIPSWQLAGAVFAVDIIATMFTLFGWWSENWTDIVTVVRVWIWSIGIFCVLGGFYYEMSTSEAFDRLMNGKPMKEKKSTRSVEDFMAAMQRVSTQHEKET

For the molecule `CN1CCN(CC(O)Cn2c3ccc(Cl)cc3c3cc(Cl)ccc32)CC1` (stereo not shown) [Compound 8, 1-(3,6-dichloro-9H-carbazol-9-yl)-3-(4-methylpiperazin-1-yl)propan-2-ol], in the assay on C. albicans cells, the iATP is on record as 70 ± 25 nM.

What is called IC50 is the point on the concentration scale where inhibition reaches its midpoint. The low end stands for inhibition by little substance, the high end for a need for much substance. In the case of `OC(Cn1ccnc1)Cn1c2ccc(Cl)cc2c2cc(Cl)ccc21` (stereo not shown) [Compound 5, 1-(3,6-dichloro-9H-carbazol-9-yl)-3-(1H-imidazol-1-yl)propan-2-ol], the figures for the half-inhibitory concentration (IC50) at S. cerevisiae H^+-ATPase (1 mM ATP) and at S. cerevisiae H^+-ATPase (10 mM ATP) were 78 ± 14.9 µM and 60 ± 14.2 µM, respectively.

Regarding `CN1CCN(CCCn2c3ccc(Cl)cc3c3cc(Cl)ccc32)CC1` [Compound 16, 3,6-dichloro-9-(3-(4-methylpiperazin-1-yl)propyl)-9H-carbazole], the iATP in the assay with C. albicans cells was 235 ± 70 nM.

With `OC(CN1CCOCC1)Cn1c2ccc(Cl)cc2c2cc(Cl)ccc21` (stereo not shown) [Compound 7, 1-(3,6-dichloro-9H-carbazol-9-yl)-3-morpholinopropan-2-ol], in the assay with C. albicans cells, the iATP was found to be 93 ± 45 nM. For the same molecule, the IC50 on S. cerevisiae H^+-ATPase (1 mM ATP) came to 29.7 ± 6.7 µM; against S. cerevisiae H^+-ATPase (10 mM ATP), 16.8 ± 1.7 µM.

On to `CN(C)CCCCn1c2ccc(Cl)cc2c2cc(Cl)ccc21` [Compound 15], for which the iATP in the assay on C. albicans cells was found to be 53 ± 10 nM.

Take `CCC(C)NCC(O)Cn1c2ccc(Cl)cc2c2cc(Cl)ccc21` (stereo not shown) [Compound 10, 1-(sec-butylamino)-3-(3,6-dichloro-9H-carbazol-9-yl)propan-2-ol]: the iATP in the assay with C. albicans cells was determined as 491 ± 79 nM. In addition, the “activity in bacteria reported previously” value in the assay on Pseudomonas aeruginosa is listed as “membrane damaging activity”. In addition, the values for the half-maximal inhibitory concentration (IC50) against S. cerevisiae H^+-ATPase (1 mM ATP) and against S. cerevisiae H^+-ATPase (10 mM ATP) were 4.5 ± 0.5 µM and 6.3 ± 1.2 µM, respectively. The “exposure time after which fungicidal activity was evident” value in the assay on C. glabrata (ATCC 90030) (C. glabrata) came out at 3 h; in the assay on C. albicans (SC5314) (10 µM), 1 h. Further, the “time-kill outcome (fungistatic or fungicidal)” value in the assay with C. glabrata (ATCC 90030) (wild-type C. glabrata, 5 or 10 µM, versus 1 µM AMB) is “cell death comparable to that observed for amphotericin B”; in the assay with C. albicans (SC5314) (5 or 10 µM, versus 1 µM AMB) it was “cell death comparable to that observed for amphotericin B”.

The record behind these values is PMC5609566, “Elucidation of antimicrobial activity and mechanism of action by N-substituted carbazole derivatives” (Bioorganic & Medicinal Chemistry Letters, 2017).
